For the test, the system named is P388 leukemia ip, CD2F1 mice, survival T/C. The test can be described thus: NCI In Vivo Anticancer Drug Screen. Data for tumor model P388 Leukemia (intraperitoneal) in CD2F1 (CDF1) mice. The note with it: endpoint: median survival time, higher = longer survival. The method, boiled down:
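Mice carrying the transplanted tumor received test compound or vehicle. Survival was recorded in each group, and the value is the treated-group measurement divided by that of the vehicle-treated control group.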

Setting [1] is: dose: 50.0 mg/kg/injection, schedule: Q01DX009 (ip), vehicle: saline with Tween-80.
[2] abbreviates: dose: 100.0 mg/kg/injection, schedule: Q01DX009 (ip), vehicle: saline with Tween-80.
Where [3] appears, read: dose: 200.0 mg/kg/injection, schedule: Q01DX009 (ip), vehicle: saline with Tween-80.
Where [4] appears, read: dose: 12.5 mg/kg/injection, schedule: Q01DX005 (ip), vehicle: Klucel (hydroxypropylcellulose) (HPC).
The mark [5] stands for this setting: dose: 25.0 mg/kg/injection, schedule: Q01DX005 (ip), vehicle: Klucel (hydroxypropylcellulose) (HPC).
Setting [6] is: dose: 50.0 mg/kg/injection, schedule: Q01DX005 (ip), vehicle: Klucel (hydroxypropylcellulose) (HPC).
The mark [7] stands for this setting: dose: 100.0 mg/kg/injection, schedule: Q01DX005 (ip), vehicle: Klucel (hydroxypropylcellulose) (HPC).

Values joined by “and” are separate entries in the source; they are usually repeats but may differ in a detail not shown here. Identical values can stand only once. Toxic doses and inconclusive results are not listed.

This note sets out measurements from PubChem BioAssay AID330 (DTP/NCI, 2004).

Turning to `CCOC(=O)N(C)C(C)Cc1ccccc1` (stereo not given), the T/C is, setting by setting: under setting [1], 100 % of control; under setting [2], 104 % of control; under setting [3], 108 % of control.

For the compound `Cn1cc(CCC(=O)C2C=CC=CC2=NC(=O)CCCl)c2ccccc21` (stereo not given), the T/C is, setting by setting: (dose: 60.0 mg/kg/injection, schedule: Q01DX005 (ip), vehicle: saline with Tween-80) 107 % of control; (dose: 120.0 mg/kg/injection, schedule: Q01DX005 (ip), vehicle: saline with Tween-80) 101 % of control; (dose: 240.0 mg/kg/injection, schedule: Q01DX005 (ip), vehicle: saline with Tween-80) 94 % of control.

As for `O=C(O)C1C2CC3CC2C(C3)C1C(=O)O` (stereo not given), the T/C is 100 % of control (dose: 60.0 mg/kg/injection, schedule: Q01DX005 (ip), vehicle: Klucel (hydroxypropylcellulose) (HPC)); 100 % of control (dose: 120.0 mg/kg/injection, schedule: Q01DX005 (ip), vehicle: Klucel (hydroxypropylcellulose) (HPC)); 99 % of control (dose: 240.0 mg/kg/injection, schedule: Q01DX005 (ip), vehicle: Klucel (hydroxypropylcellulose) (HPC)).

Consider `CC1CCC2C(C)C3C(CC4C5CC=C6CC(OC7OC(CO)C(O)C(OC8OC(CO)C(O)C(O)C8O)C7OC7OC(C)C(O)C(O)C7O)CCC6(C)C5CCC43C)N2C1` (stereo not given), for which the T/C is 91 % of control (dose: 6.25 mg/kg/injection, schedule: Q01DX005 (ip), vehicle: Klucel (hydroxypropylcellulose) (HPC)); 95 % of control under setting [4]; 89 % of control under setting [5]; 98 % of control (dose: 25.0 mg/kg/injection, schedule: Q04DX003 (ip), vehicle: suspension in saline); 96 % of control (dose: 50.0 mg/kg/injection, schedule: Q04DX003 (ip), vehicle: suspension in saline); 105 % of control (dose: 100.0 mg/kg/injection, schedule: Q04DX003 (ip), vehicle: suspension in saline).

With `CCCC(=O)C(CC)C1(C(=O)OC)NC(=S)NC(=O)C1C#N` (stereo not given), the T/C is 98 % of control (dose: 60.0 mg/kg/injection, schedule: Q01DX005 (ip), vehicle: saline); 105 % of control (dose: 120.0 mg/kg/injection, schedule: Q01DX005 (ip), vehicle: saline); 98 % of control (dose: 240.0 mg/kg/injection, schedule: Q01DX005 (ip), vehicle: saline).

For `Cc1ccc(-c2cnc3c(n2)c(=O)[nH]c(=O)n3C)cc1`, the T/C runs as follows: (dose: 100.0 mg/kg/injection, schedule: Q04DX003 (ip), vehicle: Klucel (hydroxypropylcellulose) (HPC)) 103 % of control; (dose: 200.0 mg/kg/injection, schedule: Q04DX003 (ip), vehicle: Klucel (hydroxypropylcellulose) (HPC)) 98 % of control.

In the case of `S=c1cc(S)sc2c1c(=S)sc1nc3ccccn3c(=S)c12`, the T/C was 96 % of control under setting [4]; 99 % of control and 98 % of control under setting [5]; 96 % of control under setting [6]; 107 % of control and 94 % of control under setting [7].

As for `O=C(O)CSc1ccc2c3c(cccc13)C(=O)c1ccccc1-2`, the T/C by setting is: (dose: 6.25 mg/kg/injection, schedule: Q01DX009 (ip), vehicle: saline) 100 % of control; (dose: 12.5 mg/kg/injection, schedule: Q01DX009 (ip), vehicle: saline) 99 % of control and 111 % of control; (dose: 25.0 mg/kg/injection, schedule: Q01DX009 (ip), vehicle: saline) 111 % of control; (dose: 50.0 mg/kg/injection, schedule: Q01DX009 (ip), vehicle: saline) 108 % of control; (dose: 100.0 mg/kg/injection, schedule: Q01DX009 (ip), vehicle: saline) 104 % of control.

On to `C[Si](C)(C)C1c2ccccc2-c2[nH]c3ccccc3c21` (stereo not given), for which the T/C by setting is: (dose: 6.25 mg/kg/injection, schedule: Q01DX009 (ip), vehicle: Klucel (hydroxypropylcellulose) (HPC)) 101 % of control; (dose: 12.5 mg/kg/injection, schedule: Q01DX009 (ip), vehicle: Klucel (hydroxypropylcellulose) (HPC)) 87 % of control; (dose: 25.0 mg/kg/injection, schedule: Q01DX009 (ip), vehicle: Klucel (hydroxypropylcellulose) (HPC)) 102 % of control.

Take `N=C(N)n1c(N)nc2ccccc2c1=O`: the T/C was 108 % of control (dose: 12.0 mg/kg/injection, schedule: Q01DX005 (ip), vehicle: Klucel (hydroxypropylcellulose) (HPC)); 100 % of control (dose: 12.5 mg/kg/injection, schedule: Q01DX005 (ip), vehicle: saline with Tween-80); 101 % of control under setting [5]; 104 % of control (dose: 25.0 mg/kg/injection, schedule: Q01DX005 (ip), vehicle: saline with Tween-80); 121 % of control under setting [6]; 97 % of control (dose: 50.0 mg/kg/injection, schedule: Q01DX005 (ip), vehicle: saline with Tween-80).

With `COC(=O)C1=CO[C@@H](OC2OC(CO)C(O)C(O)C2O)[C@@H]2[C@@H](CO)[C@@H](O)[C@@H](OC(=O)/C=C/c3ccc(O)c(O)c3)[C@H]12` (stereo not given in full), the T/C reads like this: (dose: 7.25 mg/kg/injection, schedule: Q01DX005 (ip), vehicle: saline + alcohol) 106 % of control; (dose: 14.5 mg/kg/injection, schedule: Q01DX005 (ip), vehicle: saline + alcohol) 107 % of control; (dose: 29.0 mg/kg/injection, schedule: Q01DX005 (ip), vehicle: saline + alcohol) 109 % of control; (dose: 58.0 mg/kg/injection, schedule: Q01DX005 (ip), vehicle: saline + alcohol) 113 % of control.

For `NC1C(=O)NC(=O)NC1=O`, the T/C under setting [5] was 96 % of control; the T/C under setting [6] was 96 % of control; the T/C under setting [7] was 98 % of control; the T/C (dose: 200.0 mg/kg/injection, schedule: Q01DX005 (ip), vehicle: Klucel (hydroxypropylcellulose) (HPC)) was 100 % of control; the T/C (dose: 400.0 mg/kg/injection, schedule: Q01DX005 (ip), vehicle: Klucel (hydroxypropylcellulose) (HPC)) was 105 % of control.

For `CCN(CC)C1=NS(=O)(=O)c2ccccc2C(SC)=C1C`, the T/C was 106 % of control (dose: 100.0 mg/kg/injection, schedule: Q04DX002 (ip), vehicle: saline with Tween-80); 100 % of control (dose: 200.0 mg/kg/injection, schedule: Q04DX002 (ip), vehicle: saline with Tween-80); 100 % of control (dose: 400.0 mg/kg/injection, schedule: Q04DX002 (ip), vehicle: saline with Tween-80).

For the compound `CC12CCC(Br)C(C)(C)C1C(O)C=C1C(=O)OCC1O2` (stereo not given), the T/C is, setting by setting: (dose: 4.0 mg/kg/injection, schedule: Q01DX005 (ip), vehicle: Klucel (hydroxypropylcellulose) (HPC)) 102 % of control; (dose: 8.0 mg/kg/injection, schedule: Q01DX005 (ip), vehicle: Klucel (hydroxypropylcellulose) (HPC)) 96 % of control; (dose: 16.0 mg/kg/injection, schedule: Q01DX005 (ip), vehicle: Klucel (hydroxypropylcellulose) (HPC)) 102 % of control; (dose: 32.0 mg/kg/injection, schedule: Q01DX005 (ip), vehicle: Klucel (hydroxypropylcellulose) (HPC)) 102 % of control.

As for `COc1cc(NC(=O)CN(CCCl)CCCl)cc(OC)c1OC`, the T/C was 157 % of control (dose: 25.0 mg/kg/injection, schedule: Q01DX009 (ip), vehicle: saline with Tween-80); 213 % of control under setting [1]; 163 % of control (dose: 100.0 mg/kg/injection, schedule: Q01DX009 (ip), vehicle: saline sonified); 120 % of control under setting [2]; 100 % of control (dose: 132.0 mg/kg/injection, schedule: Q04DX003 (ip), vehicle: saline sonified); 159 % of control (dose: 200.0 mg/kg/injection, schedule: Q01DX009 (ip), vehicle: saline sonified). The T/C (dose: 200.0 mg/kg/injection, schedule: Q04DX003 (ip), vehicle: saline sonified) is 110 % of control.

Regarding `CCO/C=C1\SC(=S)N(c2ccco2)C1=O`, the T/C is, setting by setting: (dose: 100.0 mg/kg/injection, schedule: Q04DX003 (ip), vehicle: saline with Tween-80) 118 % of control; (dose: 200.0 mg/kg/injection, schedule: Q04DX003 (ip), vehicle: saline with Tween-80) 118 % of control; (dose: 400.0 mg/kg/injection, schedule: Q04DX003 (ip), vehicle: saline with Tween-80) 104 % of control.

As to `C=CCC(C(=O)OC)c1ccc(Cl)cc1` (stereo not given), the T/C by setting is: (dose: 0.62 mg/kg/injection, schedule: Q01DX009 (ip), vehicle: saline) 114 % of control; (dose: 1.25 mg/kg/injection, schedule: Q01DX009 (ip), vehicle: saline) 98 % of control; (dose: 2.5 mg/kg/injection, schedule: Q01DX009 (ip), vehicle: saline) 103 % of control.

Turning to `O=C(NCCCl)Nc1ccccc1C(=O)O`, the T/C was 90 % of control under setting [1], 95 % of control under setting [2] and 99 % of control under setting [3].
